Test results: PubChem BioAssay (NCI)
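The compound was tested at five concentrations on cells cultured in 96-well plates, with a 48-hour exposure period. TGI marks complete inhibition of growth.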

Legend:
Test in all cases: NCI tumour cell line growth inhibition, 48 h
786-0 renal = system: 786-0 renal
A498 renal = system: A498 renal
A549 NSCLC = system: A549 NSCLC
ACHN renal = system: ACHN renal
BT-549 breast = system: BT-549 breast
CAKI-1 renal = system: CAKI-1 renal
CCRF-CEM leukemia = system: CCRF-CEM leukemia
COLO 205 colon = system: COLO 205 colon
DU-145 prostate = system: DU-145 prostate
EKVX NSCLC = system: EKVX NSCLC
HCC-2998 colon = system: HCC-2998 colon
HCT-116 colon = system: HCT-116 colon
HCT-15 colon = system: HCT-15 colon
HL-60(TB) leukemia = system: HL-60(TB) leukemia
HOP-62 NSCLC = system: HOP-62 NSCLC
HOP-92 NSCLC = system: HOP-92 NSCLC
HS 578T breast = system: HS 578T breast
HT29 colon = system: HT29 colon
IGROV1 ovarian = system: IGROV1 ovarian
K-562 leukemia = system: K-562 leukemia
KM12 colon = system: KM12 colon
LOX IMVI melanoma = system: LOX IMVI melanoma
M14 melanoma = system: M14 melanoma
MALME-3M melanoma = system: MALME-3M melanoma
MCF7 breast = system: MCF7 breast
MDA-MB-231 breast = system: MDA-MB-231 breast
MDA-MB-435 = system: MDA-MB-435
MDA-N = system: MDA-N
MOLT-4 leukemia = system: MOLT-4 leukemia
NCI-H226 lung = system: NCI-H226 lung
NCI-H23 lung = system: NCI-H23 lung
NCI-H460 lung = system: NCI-H460 lung
NCI-H522 lung = system: NCI-H522 lung
NCI/ADR-RES ovarian = system: NCI/ADR-RES ovarian
OVCAR-3 ovarian = system: OVCAR-3 ovarian
OVCAR-4 ovarian = system: OVCAR-4 ovarian
OVCAR-5 ovarian = system: OVCAR-5 ovarian
OVCAR-8 ovarian = system: OVCAR-8 ovarian
PC-3 prostate = system: PC-3 prostate
RPMI-8226 leukemia = system: RPMI-8226 leukemia
RXF 393 renal = system: RXF 393 renal
SF-268 CNS = system: SF-268 CNS
SF-295 CNS = system: SF-295 CNS
SF-539 CNS = system: SF-539 CNS
SK-MEL-2 melanoma = system: SK-MEL-2 melanoma
SK-MEL-28 melanoma = system: SK-MEL-28 melanoma
SK-MEL-5 melanoma = system: SK-MEL-5 melanoma
SK-OV-3 ovarian = system: SK-OV-3 ovarian
SN12C renal = system: SN12C renal
SNB-19 CNS = system: SNB-19 CNS
SNB-75 CNS = system: SNB-75 CNS
SR leukemia = system: SR leukemia
SW-620 colon = system: SW-620 colon
T-47D breast = system: T-47D breast
TK-10 renal = system: TK-10 renal
U251 CNS = system: U251 CNS
UACC-257 melanoma = system: UACC-257 melanoma
UACC-62 melanoma = system: UACC-62 melanoma
UO-31 renal = system: UO-31 renal

CCC(C)N1CN(c2ccccc2)C2(CCN(CCCC3(c4ccc(F)cc4)OCCO3)CC2)C1=O (stereo not given)
TGI (786-0 renal): 13.3 µM | TGI (A498 renal): 37 µM | TGI (A549 NSCLC): 23.2 µM | TGI (ACHN renal): 14.9 µM | TGI (BT-549 breast): 5.82 µM | TGI (CAKI-1 renal): > 68.3 µM | TGI (CCRF-CEM leukemia): 15.3 µM | TGI (COLO 205 colon): 16.8 µM | TGI (DU-145 prostate): > 57.3 µM | TGI (EKVX NSCLC): 17.6 µM | TGI (HCC-2998 colon): 26.9 µM | TGI (HCT-116 colon): 24.9 µM | TGI (HCT-15 colon): 10.8 µM | TGI (HL-60(TB) leukemia): 23 µM | TGI (HOP-62 NSCLC): 27.6 µM | TGI (HOP-92 NSCLC): 0.959 µM | TGI (HS 578T breast): 14.2 µM | TGI (HT29 colon): > 37.5 µM | TGI (IGROV1 ovarian): 30.7 µM | TGI (K-562 leukemia): 34.3 µM | TGI (KM12 colon): > 50.6 µM | TGI (LOX IMVI melanoma): 21.6 µM | TGI (M14 melanoma): > 35.7 µM | TGI (MALME-3M melanoma): 9.5 µM | TGI (MCF7 breast): 7.58 µM | TGI (MDA-MB-231 breast): 26.2 µM | TGI (MDA-MB-435): 45.6 µM | TGI (MDA-N): 17.9 µM | TGI (MOLT-4 leukemia): 19.5 µM | TGI (NCI-H226 lung): 32.7 µM | TGI (NCI-H23 lung): 18.1 µM | TGI (NCI-H460 lung): 30.8 µM | TGI (NCI-H522 lung): 10.2 µM | TGI (NCI/ADR-RES ovarian): 27.6 µM | TGI (OVCAR-3 ovarian): 29.8 µM | TGI (OVCAR-4 ovarian): > 49.4 µM | TGI (OVCAR-5 ovarian): 22.4 µM | TGI (OVCAR-8 ovarian): 20.6 µM | TGI (PC-3 prostate): 11.4 µM | TGI (RPMI-8226 leukemia): 4 µM | TGI (RXF 393 renal): 26.5 µM | TGI (SF-268 CNS): 48.5 µM | TGI (SF-295 CNS): 10.6 µM | TGI (SF-539 CNS): 10.1 µM | TGI (SK-MEL-2 melanoma): 28.7 µM | TGI (SK-MEL-28 melanoma): 34.4 µM | TGI (SK-MEL-5 melanoma): 8.24 µM | TGI (SK-OV-3 ovarian): 56 µM | TGI (SN12C renal): 18.9 µM | TGI (SNB-19 CNS): 34.6 µM | TGI (SNB-75 CNS): 19.8 µM | TGI (SR leukemia): 23.5 µM | TGI (SW-620 colon): 28.8 µM | TGI (T-47D breast): 42.5 µM | TGI (TK-10 renal): 20.7 µM | TGI (U251 CNS): 10.9 µM | TGI (UACC-257 melanoma): 4.24 µM | TGI (UACC-62 melanoma): > 55.2 µM | TGI (UO-31 renal): 10.7 µM

CC(C)=CCC[C@@H](C)C1=C(O)C(Nc2ccccc2)=C(C)C(=O)C1=O
TGI (786-0 renal): > 100 µM | TGI (A498 renal): 87.1 µM | TGI (A549 NSCLC): 45.5 µM | TGI (ACHN renal): 36.1 µM | TGI (BT-549 breast): > 100 µM | TGI (CAKI-1 renal): 56.8 µM | TGI (CCRF-CEM leukemia): 5.78 µM | TGI (COLO 205 colon): > 61.8 µM | TGI (DU-145 prostate): > 74.2 µM | TGI (EKVX NSCLC): > 100 µM | TGI (HCC-2998 colon): > 100 µM | TGI (HCT-116 colon): > 75.6 µM | TGI (HCT-15 colon): > 78.7 µM | TGI (HL-60(TB) leukemia): 24.4 µM | TGI (HOP-62 NSCLC): > 55.2 µM | TGI (HOP-92 NSCLC): > 78.3 µM | TGI (HS 578T breast): > 100 µM | TGI (HT29 colon): > 96.3 µM | TGI (IGROV1 ovarian): > 100 µM | TGI (K-562 leukemia): > 80.9 µM | TGI (KM12 colon): > 100 µM | TGI (LOX IMVI melanoma): > 100 µM | TGI (M14 melanoma): 34.9 µM | TGI (MALME-3M melanoma): > 75 µM | TGI (MCF7 breast): > 86 µM | TGI (MDA-MB-231 breast): > 100 µM | TGI (MDA-MB-435): > 100 µM | TGI (MDA-N): > 100 µM | TGI (MOLT-4 leukemia): > 72.2 µM | TGI (NCI-H226 lung): > 73.4 µM | TGI (NCI-H23 lung): 98.7 µM | TGI (NCI-H460 lung): > 64.5 µM | TGI (NCI/ADR-RES ovarian): 45.6 µM | TGI (OVCAR-3 ovarian): > 52.2 µM | TGI (OVCAR-4 ovarian): > 100 µM | TGI (OVCAR-5 ovarian): > 100 µM | TGI (OVCAR-8 ovarian): > 100 µM | TGI (PC-3 prostate): > 100 µM | TGI (RPMI-8226 leukemia): > 73.3 µM | TGI (RXF 393 renal): 60.7 µM | TGI (SF-268 CNS): > 100 µM | TGI (SF-295 CNS): 32.4 µM | TGI (SF-539 CNS): 84.8 µM | TGI (SK-MEL-2 melanoma): > 89.9 µM | TGI (SK-MEL-28 melanoma): > 100 µM | TGI (SK-MEL-5 melanoma): 55.6 µM | TGI (SK-OV-3 ovarian): > 96.2 µM | TGI (SN12C renal): > 100 µM | TGI (SNB-19 CNS): > 100 µM | TGI (SNB-75 CNS): > 85.8 µM | TGI (SR leukemia): > 100 µM | TGI (SW-620 colon): > 100 µM | TGI (T-47D breast): 59.7 µM | TGI (TK-10 renal): > 100 µM | TGI (U251 CNS): > 100 µM | TGI (UACC-257 melanoma): > 100 µM | TGI (UACC-62 melanoma): 54.5 µM | TGI (UO-31 renal): 46.4 µM

OCC(S)CS.[Bi] (stereo not given)
TGI (786-0 renal): 39.3 µM | TGI (A498 renal): 56.3 µM | TGI (A549 NSCLC): > 100 µM | TGI (ACHN renal): 30.6 µM | TGI (BT-549 breast): 27.8 µM | TGI (CAKI-1 renal): 24.9 µM | TGI (CCRF-CEM leukemia): 5.22 µM | TGI (COLO 205 colon): 30 µM | TGI (DU-145 prostate): 68.5 µM | TGI (EKVX NSCLC): 45.4 µM | TGI (HCC-2998 colon): 27.5 µM | TGI (HCT-116 colon): 44.4 µM | TGI (HCT-15 colon): 50.7 µM | TGI (HL-60(TB) leukemia): 46.4 µM | TGI (HOP-62 NSCLC): 50.9 µM | TGI (HOP-92 NSCLC): 44.6 µM | TGI (HS 578T breast): 53.5 µM | TGI (HT29 colon): 46.4 µM | TGI (IGROV1 ovarian): 54.9 µM | TGI (K-562 leukemia): > 100 µM | TGI (KM12 colon): 46.2 µM | TGI (LOX IMVI melanoma): > 100 µM | TGI (M14 melanoma): 29.5 µM | TGI (MALME-3M melanoma): 17.6 µM | TGI (MCF7 breast): > 100 µM | TGI (MDA-MB-231 breast): 43.2 µM | TGI (MDA-MB-435): 35.6 µM | TGI (MDA-N): 34.4 µM | TGI (NCI-H226 lung): > 100 µM | TGI (NCI-H23 lung): 52.2 µM | TGI (NCI-H460 lung): > 100 µM | TGI (NCI-H522 lung): 12.9 µM | TGI (NCI/ADR-RES ovarian): > 100 µM | TGI (OVCAR-3 ovarian): 24.7 µM | TGI (OVCAR-4 ovarian): 69.2 µM | TGI (OVCAR-5 ovarian): 42.5 µM | TGI (OVCAR-8 ovarian): 52.3 µM | TGI (PC-3 prostate): 27.3 µM | TGI (RPMI-8226 leukemia): 28.3 µM | TGI (RXF 393 renal): 26.2 µM | TGI (SF-268 CNS): 28.4 µM | TGI (SF-295 CNS): > 100 µM | TGI (SF-539 CNS): > 100 µM | TGI (SK-MEL-2 melanoma): 30 µM | TGI (SK-MEL-28 melanoma): 28.3 µM | TGI (SK-MEL-5 melanoma): > 100 µM | TGI (SK-OV-3 ovarian): > 100 µM | TGI (SN12C renal): 37.9 µM | TGI (SNB-19 CNS): 37.3 µM | TGI (SNB-75 CNS): 26.8 µM | TGI (SR leukemia): > 100 µM | TGI (SW-620 colon): > 100 µM | TGI (T-47D breast): 31.5 µM | TGI (TK-10 renal): 32.4 µM | TGI (U251 CNS): 40.2 µM | TGI (UACC-257 melanoma): 27.9 µM | TGI (UACC-62 melanoma): 38.5 µM | TGI (UO-31 renal): 34.1 µM
